Assay results as given in patent US20090155180A1, “Methods and targets for identifying compounds for regulating rhinovirus infection” (priority 2007, published 2009).
Where two headings read alike, the source gives them in different places.

What was measured:
[1] = system: IP-10 (CXCL10); test: IP-10 level in BEAS-2B cells infected with rhinovirus RV-16; type: cell-based, human; conditions: BEAS-2B cells infected with RV-16; test ingredient at 5 μM andrographolide content; control 61.99
Source text: An in vitro cell line of BEAS-2B cells can be infected with rhinovirus RV-16. The cells are then exposed to various compounds and extracts and subsequently levels of respiratory biomarker proteins can be assayed. Extracts and compounds are identified as regulating the respiratory biomarker proteins by monitoring the levels of the respiratory biomarker proteins after exposure of the infected cells to the extracts and compounds and comparing to the levels of the respiratory biomarker proteins in infected cells that have not been exposed to extracts and compounds.
In the example, the test ingredients are extracts of the herb andrographis paniculata, or its principal component, andrographolide. The test ingredients are tested at a level of 5 μM andrographolide content. The respiratory biomarker protein is IP-10 (CXCL10), a chemotactic agent.

[2] = system: NF-kB; test: IL1b-induced NFkB nuclear translocation (Cellomics HitKit), A549 cells; type: cell-based; conditions: Homo sapiens, 0.5 h, IL1b 0.05 ng/ml for 30 min, then inhibitor 30 min
Source text: (§1) Because NF-κB must be in the nucleus to induce gene expression, its translocation is a definitive measure of its activation and marks an earlier event than reporter gene expression. This assay is an example of a 96-well medium throughput technology that can detect NF-κB translocation in several cell types.
(§2) Assays may be performed in standard, high-density microplates, where measurements of the rate and extent of NF-κB translocation are made in intact cells which provides more biological representative information. Cellomics' NF-κB activation kit (Cat. No. K01-001-1) may combine fluorescent reagents and protocols for optimized sample preparation and assays, and requires no cell lysis, purification or filtration steps. After fixation, the plates are stable for extended periods, when stored light-protected at 4° C.
(§3) One may create a fully automated screen to identify compounds that inhibit or activate NF-[…]B on a cell-by-cell basis. Prepared cells can be analyzed using standard fluorescence microscopy or using Cellomics' fully automated HCS Reader with the Cytoplasm to Nucleus Translocation Bioapplication, affording automated plate handling, focusing, image acquisition, analysis, quantification, and data storage.

[3] = system: NF-kB; test: IL1b-induced NFkB nuclear translocation (Cellomics HitKit), BEAS-2B cells; type: cell-based; conditions: Homo sapiens, 0.5 h, IL1b 0.5 ng/ml for 30 min, then inhibitor 30 min
Source text: as §1, §2, §3

[4] = system: PGE2 formation; test: PGE2 formation in cells infected with rhinovirus (Cisbio HTRF assay); type: cell-based, human
Source text: There are several standard methods available for quantifying PGE2. The HTRF® PGE2 assay (developed by Cisbio International, Cat. No. 62P2APEB) is an example of a highly sensitive method for quantifying PGE2. Its principle is based on HTRF technology (Homogeneous Time-Resolved Fluorescence). It can be performed either in cell supernatants or directly in the presence of whole cells. This method is a competitive immunoassay in which native PGE2 produced by cells, and d2-labelled PGE2 compete for binding to MAb anti-PGE2 labeled with cryptate. The HTRF signal is inversely proportional to the concentration of PGE2 in the calibrator or in the sample. The incubation time and temperature following addition of the HTRF detection reagents has little effect on the assay results providing another level of assay flexibility.
Briefly, consecutive dilutions (within the 0-5000 pg/ml range) of samples may be prepared with the diluent. The reagents are dispensed (as outlined in the protocol) into a 384-well low volume plate (20 ul). Negative and positive controls are included. The plate is covered with a plate sealer and incubated for 5 hours at room temperature or overnight at 4° C. Free PGE2 from the sample competes with […] for binding to the Cryptate conjugated anti-PGE2 antibody. Then the plate is read on a compatible HTRF reader.
(§4) Test compounds may be assayed for inhibition of prostaglandin production via contacting them individually with cells that have been infected with rhinovirus. An assay for prostaglandin is available from Cisbio International, Bedford Mass. One cell line suitable for infection by rhinovirus is A549 (ATCC designation CCL-185), a human epithelial lung carcinoma available from ATCC, Manassas, Va. […] A COX assay is available from Cayman Chemical, Ann Arbor, Mich.

[5] = biological target: T1, ovine COX-1 (Ovis aries, UniProt P05979); test: COX Inhibitor Screening Assay (Cayman), COX-1; type: biochemical
T1 construct: purchased Cayman Chemical Company 560101
Source text: An example of a COX Inhibitor Screening Assay (Cat. No. 560101 manufactured by Cayman Chemical Company, Ann Harbor, Mich.) directly measures PGF2 produced by SnCl2 reduction of COX-derived PGH2. The prostanoid product may be quantified via enzyme immunoassay (EIA) using a broadly specific antibody that binds to all the major prostaglandin compounds. Thus, the COX assay is more accurate and reliable than an assay based on peroxidase inhibition. The Cayman COX Inhibitor Screening Assay includes both ovine COX-1 and human recombinant COX-2 enzymes in order to screen isozyme-specific inhibitors. This assay may be an excellent tool which can be used for general inhibitor screening, or to eliminate false positive leads generated by less specific methods.
as §4

[6] = biological target: T2, human recombinant COX-2 (Homo sapiens, UniProt P35354); test: biochemical; conditions: purified enzyme
T2 sequence (P35354 18-604): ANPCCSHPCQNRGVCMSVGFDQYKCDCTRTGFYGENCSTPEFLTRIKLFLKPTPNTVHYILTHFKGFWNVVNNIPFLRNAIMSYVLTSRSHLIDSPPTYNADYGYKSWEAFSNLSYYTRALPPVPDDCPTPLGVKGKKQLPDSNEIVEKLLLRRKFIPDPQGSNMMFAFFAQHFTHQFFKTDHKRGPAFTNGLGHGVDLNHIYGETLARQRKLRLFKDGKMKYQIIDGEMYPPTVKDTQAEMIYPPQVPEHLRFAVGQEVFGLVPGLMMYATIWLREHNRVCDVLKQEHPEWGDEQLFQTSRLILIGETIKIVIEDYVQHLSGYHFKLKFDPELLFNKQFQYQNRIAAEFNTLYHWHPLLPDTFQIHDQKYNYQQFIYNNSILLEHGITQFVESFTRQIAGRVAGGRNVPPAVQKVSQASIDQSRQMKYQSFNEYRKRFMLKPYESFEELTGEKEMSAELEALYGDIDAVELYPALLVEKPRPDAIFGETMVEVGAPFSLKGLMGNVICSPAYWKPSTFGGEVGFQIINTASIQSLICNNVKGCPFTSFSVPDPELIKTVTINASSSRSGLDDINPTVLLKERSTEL
Source text: An example of a COX Inhibitor Screening Assay (Cat. No. 560101 manufactured by Cayman Chemical Company, Ann Harbor, Mich.) directly measures PGF2 produced by SnCl2 reduction of COX-derived PGH2. The prostanoid product may be quantified via enzyme immunoassay (EIA) using a broadly specific antibody that binds to all the major prostaglandin compounds. […] The Cayman COX Inhibitor Screening Assay includes both ovine COX-1 and human recombinant COX-2 enzymes in order to screen isozyme-specific inhibitors.
An assay for prostaglandin is available from Cisbio International, Bedford Mass. One cell line suitable for infection by rhinovirus is A549 (ATCC designation CCL-185), a human epithelial lung carcinoma available from ATCC, Manassas, Va. […] A COX assay is available from Cayman Chemical, Ann Arbor, Mich.

T1 sequence (P05979 25-600): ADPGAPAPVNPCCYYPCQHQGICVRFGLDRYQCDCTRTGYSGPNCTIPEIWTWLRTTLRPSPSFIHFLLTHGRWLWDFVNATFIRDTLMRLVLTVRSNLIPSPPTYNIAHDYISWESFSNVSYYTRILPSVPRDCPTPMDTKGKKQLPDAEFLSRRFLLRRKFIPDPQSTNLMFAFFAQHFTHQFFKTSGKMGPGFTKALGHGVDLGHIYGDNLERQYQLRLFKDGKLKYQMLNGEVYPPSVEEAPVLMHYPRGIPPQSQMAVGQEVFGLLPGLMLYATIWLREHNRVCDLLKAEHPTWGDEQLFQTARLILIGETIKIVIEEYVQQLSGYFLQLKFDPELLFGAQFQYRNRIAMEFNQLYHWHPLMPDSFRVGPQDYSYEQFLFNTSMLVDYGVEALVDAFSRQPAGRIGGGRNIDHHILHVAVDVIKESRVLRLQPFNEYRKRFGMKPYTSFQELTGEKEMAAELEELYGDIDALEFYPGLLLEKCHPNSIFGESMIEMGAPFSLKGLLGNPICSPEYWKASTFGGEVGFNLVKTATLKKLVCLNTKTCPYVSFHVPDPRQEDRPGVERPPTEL

## C=C1CC[C@@H]2[C@](C)(CO)[C@H](O)CC[C@@]2(C)[C@@H]1C/C=C1/C(=O)OC[C@H]1O [Andrographolide, andrographolide]
[1]
  IP-10 (CXCL10): 18.07 pg/mL

## COc1cc(/C=C/C(=O)CC(=O)/C=C/c2ccc(O)c(OC)c2)ccc1O [Curcumin, curcumin]
[2]
  IC50: 37.5 µM
[3]
  IC50: 5.9 µM

## CCCc1ccc(O)c(OC)c1 [DIHYDROEUGENOL, dihydroeugenol]
[4]; cells infected with rhinovirus (A549 named as suitable line), read-out: IC50 PGE2 formation
  IC50: 0.38 µM
[5]; purified enzyme, read-out: IC50 COX-1 activity
  IC50: 82 µM
[6]
  IC50: 75 µM

## CCOc1ccc2c(c1)C(C)=CC(C)(C)N2 [ETHOXYQUIN, ethoxyquin]
[4]; Homo sapiens, cells infected with rhinovirus (A549 named as suitable line), read-out: IC50 PGE2 formation
  IC50: 0.03 µM
[5]
  IC50: 459 µM
[6]
  IC50: 54 µM

## C=CCc1ccc(O)c(OC)c1 [EUGENOL, eugenol]
[4]; Homo sapiens, A549, read-out: IC50 PGE2 formation
  IC50: 0.42 µM
[5]
  IC50: 42 µM
